From publication PMC2950867 (Journal of pharmacological and toxicological methods, 2010)
Read-outs that look alike come from different tables or passages of the source.

Columns and labels:
Caco-2 cells [1] = format: cell-based, human; conditions: read-out: IC50 TMER 24-hr; Caco-2 monolayers on PET inserts, 24-hr single dosing
Caco-2 cells [2] = format: cell-based, human; conditions: for IC50: read-out: IC50 MTT 24-hr, Caco-2 confluent monolayers, 24-hr single dosing
[3] = ref Horton et al., cited from earlier work; for pKa of the α-amino group: 25 °C, free amino acid

Molecule | IC50 (Caco-2 cells [1]) | IC50 (Caco-2 cells [2]) | pKa of the α-amino group [3] | other results
mercury chloride | 90 µM |  |  | 
[Cl][Mn][Cl] [manganese chloride] | 3080 µM | 9600 µM |  | 
[Cl][Ni][Cl] [nickel chloride] | 8400 µM | 968 µM |  | MTT (cell viability) (Caco-2 cells [2]; 24-hr single exposure at the 24-hr TMER IC50 concentration): 16% of control
NC(=O)C[C@H](N)C(=O)O [asparagine] |  |  | 8.7 | 
N[C@@H](CS)C(=O)O [cysteine] |  |  | 10.7 | 
[Cl][Cd][Cl] [cadmium chloride] | 49 µM | 109 µM |  | 
N[C@@H](Cc1ccc(O)cc1)C(=O)O [tyrosine] |  |  |  | hydropathy (tendency to prefer a hydrophobic environment) [3]: 0.019 kcal/mol
O=S(=O)([O-])[O-].[Cu+2] [cupric sulfate] | 1800 µM | 1570 µM |  | 
NCC(=O)O [glycine] |  |  | 9.8 | hydropathy (tendency to prefer a hydrophobic environment) [3]: 0.16 kcal/mol
